Source: ChEMBL document CHEMBL2412960, “Inhibition of Mycobacterium tuberculosis strains H37Rv and MDR MS-115 by a new set of C5 modified pyrimidine nucleosides” (Bioorg Med Chem, 2013)
In brackets after ≈: the same amount, converted by molar mass. Activity calls are given as the source filed them. The rule behind the calls is not given here.

Experiments:
[1] = test system: Mycobacterium tuberculosis; test: Bacteriostatic activity against rifampicin, isoniazid, streptomycin, ethambutol and pyrazinamide-resistant Mycobacterium tuberculosis MS-115 assessed as growth inhibition; type: functional
[2] = test system: Mycobacterium tuberculosis; test: Bacteriostatic activity against rifampicin, isoniazid, streptomycin, ethambutol and pyrazinamide-resistant Mycobacterium tuberculosis MS-115 assessed as growth inhibition at 2 to 200 ug/mL relative to control; type: functional, organism-based
[3] = test system: Mycobacterium tuberculosis; test: Bacteriostatic activity against rifampicin, isoniazid, streptomycin, ethambutol and pyrazinamide-resistant Mycobacterium tuberculosis MS-115 assessed as growth inhibition at 20 ug/mL relative to control; type: functional; settings: read-out: GI
[4] = test system: Mycobacterium tuberculosis; test: Bacteriostatic activity against rifampicin, isoniazid, streptomycin, ethambutol and pyrazinamide-resistant Mycobacterium tuberculosis MS-115 assessed as growth inhibition at 50 ug/mL relative to control; type: functional; settings: read-out: GI
[5] = test system: Mycobacterium tuberculosis; test: Bacteriostatic activity against rifampicin, isoniazid, streptomycin, ethambutol and pyrazinamide-resistant Mycobacterium tuberculosis MS-115 assessed as growth inhibition at 200 ug/mL relative to control; type: functional; settings: read-out: GI
[6] = test system: Mycobacterium tuberculosis; test: Bacteriostatic activity against rifampicin, isoniazid, streptomycin, ethambutol and pyrazinamide-resistant Mycobacterium tuberculosis MS-115 assessed as growth inhibition at 10 ug/mL relative to control; type: functional; settings: read-out: GI
[7] = test system: Mycobacterium tuberculosis; test: Bacteriostatic activity against rifampicin, isoniazid, streptomycin, ethambutol and pyrazinamide-resistant Mycobacterium tuberculosis MS-115 assessed as growth inhibition at 2 ug/mL relative to control; type: functional; settings: read-out: GI
[8] = test system: Mycobacterium tuberculosis; test: Bacteriostatic activity against rifampicin, isoniazid, streptomycin, ethambutol and pyrazinamide-resistant Mycobacterium tuberculosis MS-115 assessed as growth inhibition at 5 ug/mL relative to control; type: functional; settings: read-out: GI

SMILES | MIC99 [1] | growth inhibition (GI) [2] | inhibition of growth at 20 µg/mL [3] | inhibition of growth at 50 µg/mL [4] | inhibition of growth at 200 µg/mL [5] | inhibition of growth at 10 µg/mL [6] | inhibition of growth at 2 µg/mL [7] | inhibition of growth at 5 µg/mL [8]
NNC(=O)c1ccncc1 [ISONIAZID] | inactive | inactive | – | – | – | – | – | –
CCCCCCCCCCc1cn(Cc2cn([C@H]3C[C@H](O)[C@@H](CO)O3)c(=O)nc2N)nn1 | 50 µg/mL (≈ 111 µM) | – | 75% | 100% | – | – | – | –
CCCCCCCCCCCCOCc1cn([C@H]2C[C@H](N)[C@@H](CO)O2)c(=O)[nH]c1=O | 20 µg/mL (≈ 47 µM) | – | 100% | 100% | 100% | – | – | –
NC(=O)c1cnccn1 | – | inactive | – | – | – | – | – | –
CCCCCCCCCCCCc1cn(Cc2cn([C@H]3C[C@H](O)[C@@H](CO)O3)c(=O)nc2N)nn1 | 10 µg/mL (≈ 21 µM) | – | 100% | 100% | – | 99% | – | –
CO[C@H]1/C=C/O[C@@]2(C)Oc3c(C)c(O)c4c(O)c(c(/C=N/N5CCN(C)CC5)c(O)c4c3C2=O)NC(=O)/C(C)=C\C=C\[C@H](C)[C@H](O)[C@@H](C)[C@@H](O)[C@@H](C)[C@H](OC(C)=O)[C@@H]1C [RIFAMPIN] | inactive | inactive | – | – | – | – | – | –
CC[C@@H](CO)NCCN[C@@H](CC)CO | – | inactive | – | – | – | – | – | –
CCCCCCCCCCCCOCc1cn([C@H]2C[C@H](O)[C@@H](CO)O2)c(=O)[nH]c1=O | 50 µg/mL (≈ 117 µM) | – | – | 100% | 100% | – | 50% | –
CCCCCCCCCCCCc1cn(Cc2cn([C@H]3C[C@H](O)[C@@H](CO)O3)c(=O)[nH]c2=O)nn1 | 10 µg/mL (≈ 20.9 µM) | – | 99% | 100% | – | 99% | – | 90%
CC1COc2c(N3CCN(C)CC3)c(F)cc3c(=O)c(C(=O)O)cn1c23 (centres undefined) [OFLOXACIN] | 2 µg/mL (≈ 5.53 µM) | – | – | – | – | – | 100% | –
CCCCCCCCCCc1cn(Cc2cn([C@H]3C[C@H](O)[C@@H](CO)O3)c(=O)[nH]c2=O)nn1 | 10 µg/mL (≈ 22.2 µM) | – | 100% | 100% | – | 99% | – | 75%
CN[C@@H]1[C@H](O[C@H]2[C@H](O[C@H]3[C@H](O)[C@@H](O)[C@H](N=C(N)N)[C@@H](O)[C@@H]3N=C(N)N)O[C@@H](C)[C@]2(O)C=O)O[C@@H](CO)[C@H](O)[C@H]1O | – | inactive | – | – | – | – | – | –
